Laboratory results taken from publication PMC9827108 (Cancer Discovery, 2022).
Read-outs that look alike come from different tables or passages of the source.

Assays:
[1] = tested on: patients with EGFRm, MET-amplified/overexpressed NSCLC; type: in vivo, human
[2] = type: in vivo, human; conditions: Parts B and D

Compound | Any AE grade ≥3 possibly causally related to the labelled drug(s) only ([1]; All Part B) | Any AE leading to discontinuation of the labelled drug ([1]; All Part B) | Any AE leading to interruption or reduction of the labelled drug ([1]; All Part B) | Any SAE leading to discontinuation of the labelled drug ([1]; All Part B) | Any SAE leading to interruption or reduction of the labelled drug ([1]; All Part B) | Any SAE possibly causally related to the labelled drug(s) only ([1]; All Part B) | Labelled drug discontinued due to possibly causally related AE: vomiting ([1]; All Part B) | Any AE grade ≥3 possibly causally related to the labelled drug(s) only ([1]; Part B1) | Any AE leading to discontinuation of the labelled drug ([1]; Part B1) | Any AE leading to interruption or reduction of the labelled drug ([1]; Part B1) | Any SAE leading to discontinuation of the labelled drug ([1]; Part B1) | Any SAE leading to interruption or reduction of the labelled drug ([1]; Part B1) | Any SAE possibly causally related to the labelled drug(s) only ([1]; Part B1) | Any AE grade ≥3 possibly causally related to the labelled drug(s) only ([1]; Part B2) | Any AE leading to discontinuation of the labelled drug ([1]; Part B2) | Any AE leading to interruption or reduction of the labelled drug ([1]; Part B2) | Any SAE leading to discontinuation of the labelled drug ([1]; Part B2) | Any SAE leading to interruption or reduction of the labelled drug ([1]; Part B2) | Any SAE possibly causally related to the labelled drug(s) only ([1]; Part B2) | Any AE grade ≥3 possibly causally related to the labelled drug(s) only ([1]; Part B3) | also measured
C[C@@H](c1ccc2nccn2c1)n1nnc2ncc(-c3cnn(C)c3)nc21 [savolitinib, (S)-1-(1-(Imidazo[1,2-a]pyridin-6-yl)ethyl)-6-(1-methyl-1H-pyrazol-4-yl)-1H-[1,2, 3]triazolo[4,5-b]pyrazine] | 34 (25) n (%) | 49 (36) n (%) | 61 (44%) n (%) | 28 (20) n (%) | 20 (14) n (%) | 15 (11) n (%) | 4 (3%) n (%) | 14 (20) n (%) | 19 (28) n (%) | 27 (39) n (%) | 11 (16) n (%) | 9 (13) n (%) | 6 (9) n (%) | 13 (25) n (%) | 20 (39) n (%) | 25 (49) n (%) | 11 (22) n (%) | 9 (18) n (%) | 6 (12) n (%) | 7 (39) n (%) | Any AE leading to interruption or reduction of the labelled drug ([1]; All Part B, listed as Savolitinib): 61 (44) n (%); Deaths due to AEs considered possibly causally related to study drug ([1]; Part B2): one case was considered possibly related to savolitinib (acute renal failure); Any AE leading to discontinuation of the labelled drug ([1]; Part B3): 10 (56) n (%); Any AE leading to interruption or reduction of the labelled drug ([1]; Part B3): 9 (50) n (%); Any SAE leading to discontinuation of the labelled drug ([1]; Part B3): 6 (33) n (%); Any SAE leading to interruption or reduction of the labelled drug ([1]; Part B3): 2 (11) n (%); Any SAE possibly causally related to the labelled drug(s) only ([1]; Part B3): 3 (17) n (%); Any AE grade ≥3 possibly causally related to the labelled drug(s) only ([1]; Part D): 5 (12) n (%); Any AE leading to discontinuation of the labelled drug ([1]; Part D): 15 (36) n (%); Any AE leading to interruption or reduction of the labelled drug ([1]; Part D): 16 (38) n (%); Any SAE leading to discontinuation of the labelled drug ([1]; Part D): 6 (14) n (%); Any SAE leading to interruption or reduction of the labelled drug ([1]; Part D): 7 (17) n (%); Any SAE possibly causally related to the labelled drug(s) only ([1]; Part D): 2 (5) n (%); Labelled drug discontinued due to possibly causally related AE: myalgia ([1]; Part D): 3 (7%) n (%); Labelled drug discontinued due to possibly causally related AE: pyrexia ([1]; Part D): 2 (5%) n (%); Labelled drug discontinued due to possibly causally related AE: rash ([1]; Part D): 2 (5%) n (%); Accumulation and time dependence of PK at steady state ([2]; multiple dosing): neither apparent accumulation nor time-dependent PK changes upon multiple dosing; half-life ([2]; human, plasma, oral, Mean terminal elimination half-life (t1/2λz), single and multiple dosing): 2 to 4 h; Tmax ([2]; human, plasma, oral, Median tmax and tssmax, savolitinib 600 mg/300 mg q.d. + osimertinib 80 mg q.d.): 2 to 4 h
C=CC(=O)Nc1cc(Nc2nccc(-c3cn(C)c4ccccc34)n2)c(OC)cc1N(C)CCN(C)C [osimertinib] | 8 (6) n (%) | 24 (17) n (%) | 59 (43%) n (%) | 20 (14) n (%) | 27 (20) n (%) | 0 n (%) | 2 (1%) n (%) | 3 (4) n (%) | 12 (17) n (%) | 22 (32) n (%) | 9 (13) n (%) | 10 (14) n (%) | 0 n (%) | 3 (6) n (%) | 9 (18) n (%) | 25 (49) n (%) | 8 (16) n (%) | 11 (22) n (%) | 0 n (%) | 2 (11) n (%) | Labelled drug discontinued due to possibly causally related AE: pneumonitis ([1]; All Part B): 3 (2%) n (%); Any AE leading to interruption or reduction of the labelled drug ([1]; All Part B, listed as Osimertinib): 59 (43) n (%); Any AE leading to discontinuation of the labelled drug ([1]; Part B3): 3 (17) n (%); Any AE leading to interruption or reduction of the labelled drug ([1]; Part B3): 12 (67) n (%); Any SAE leading to discontinuation of the labelled drug ([1]; Part B3): 3 (17) n (%); Any SAE leading to interruption or reduction of the labelled drug ([1]; Part B3): 6 (33) n (%); Any SAE possibly causally related to the labelled drug(s) only ([1]; Part B3): 0 n (%); Any AE grade ≥3 possibly causally related to the labelled drug(s) only ([1]; Part D): 2 (5) n (%); Any AE leading to discontinuation of the labelled drug ([1]; Part D): 8 (19) n (%); Any AE leading to interruption or reduction of the labelled drug ([1]; Part D): 13 (31) n (%); Any SAE leading to discontinuation of the labelled drug ([1]; Part D): 2 (5) n (%); Any SAE leading to interruption or reduction of the labelled drug ([1]; Part D): 10 (24) n (%); Any SAE possibly causally related to the labelled drug(s) only ([1]; Part D): 1 (2) n (%)
